Measurements: US4471131A, “Novel silyl esters of N-phosphonomethylglycine” (Monsanto Company, priority 1983, dated 1984)

How the values were obtained:
Assay in all cases: post-emergence herbicidal activity, greenhouse
Type in all cases: in vivo
Details in all cases: Table II
Quackgrass = tested on: Quackgrass
Description: (§1) A good grade of top soil is placed in aluminum pans having holes in the bottom and compacted to a depth of 0.95 to 1.27 cm. from the top of the pan. A predetermined number of seeds of each of several dicotyledonous and moncotyledonous annual plant species and/or vegetative propagules for the perennial plant species were placed on the soil and pressed into the soil surface. The seeds and/or vegetative propagules are covered with soil and leveled. The pans are then placed on a sand bench in the greenhouse and watered from below as needed. After the plants reach the desired age (two to three weeks), each pan, except for the control pans, is removed individually to a spraying chamber and sprayed by means of an atomizer at the rates noted. In the spray solution is an amount of an emulsifying agent mixture to give a spray solution or suspension which contains about 0.4% by weight of the emulsifier. The spray solution or suspension contains a sufficient amount of the candidate chemical in order to give application rates corresponding to those set forth in the tables. The pans were returned to the greenhouse and watered as before and the injury to the plants as compared to the control is observed at approximately two and four weeks and the results recorded. In the tables, WAT means "weeks after treatment."
(§2) The post-emergent herbicidal activity index used in Tables II and III is as follows:
(§3) The plant species utilized in these tests are identified by letter in accordance with the following legend: […]

Downy Brome = tested on: Downy Brome
Description: as §1, §2, §3

Pennsylvania Smartweed = tested on: Pennsylvania Smartweed
Description: as §1, §2, §3

Morningglory = tested on: Morningglory
Description: as §1, §2, §3

Johnsongrass = tested on: Johnsongrass
Description: as §1, §2, §3

Common Lambsquarters = tested on: Common Lambsquarters
Description: as §1, §2, §3

Barnyardgrass = tested on: Barnyardgrass
Description: as §1, §2, §3

Cocklebur = tested on: Cocklebur
Description: as §1, §2, §3

Canada Thistle = tested on: Canada Thistle
Description: as §1, §2, §3

Velvetleaf = tested on: Velvetleaf
Description: as §1, §2, §3

Yellow Nutsedge = tested on: Yellow Nutsedge
Description: as §1, §2, §3

[1] = 2 WAT, 5.6 kg/h, formulated immediately prior to treatment
[2] = 2 WAT, 11.2 kg/h, formulated immediately prior to treatment
[3] = 4 WAT, 5.6 kg/h, formulated immediately prior to treatment
[4] = 4 WAT, 11.2 kg/h, formulated immediately prior to treatment
[5] = 2 WAT, 5.6 kg/h, formulated in anhydrous tetrahydrofuran
[6] = 2 WAT, 11.2 kg/h, formulated in anhydrous tetrahydrofuran
[7] = 4 WAT, 5.6 kg/h, formulated in anhydrous tetrahydrofuran
[8] = 4 WAT, 11.2 kg/h, formulated in anhydrous tetrahydrofuran

CC(C)(C)[Si](C)(C)OC(=O)CNCP(=O)(O[Si](C)(C)C(C)(C)C)O[Si](C)(C)C(C)(C)C [Ex. 9, Glycine, N--((Bis[((1,1-Dimethylethyl)Dimethylsilyl)Oxy]Phosphinyl)Methyl),-(1,1-Dimethylethyl)Dimethylsilylester]
Plant Response Index (H) (Quackgrass; [1]): 0 (0-24% inhibition) | Plant Response Index (H) (Quackgrass; [2]): 0 (0-24% inhibition) | Plant Response Index (H) (Quackgrass; [3]): 0 (0-24% inhibition) | Plant Response Index (H) (Quackgrass; [4]): 0 (0-24% inhibition) | Plant Response Index (J) (Downy Brome; [1]): 0 (0-24% inhibition) | Plant Response Index (J) (Downy Brome; [2]): 1 (25-49% inhibition) | Plant Response Index (J) (Downy Brome; [3]): 1 (25-49% inhibition) | Plant Response Index (J) (Downy Brome; [4]): 1 (25-49% inhibition) | Plant Response Index (F) (Pennsylvania Smartweed; [1]): 1 (25-49% inhibition) | Plant Response Index (F) (Pennsylvania Smartweed; [2]): 1 (25-49% inhibition) | Plant Response Index (F) (Pennsylvania Smartweed; [3]): 1 (25-49% inhibition) | Plant Response Index (F) (Pennsylvania Smartweed; [4]): 1 (25-49% inhibition) | Plant Response Index (D) (Morningglory; [1]): 2 (50-74% inhibition) | Plant Response Index (D) (Morningglory; [2]): 2 (50-74% inhibition) | Plant Response Index (D) (Morningglory; [3]): 2 (50-74% inhibition) | Plant Response Index (D) (Morningglory; [4]): 2 (50-74% inhibition) | Plant Response Index (I) (Johnsongrass; [1]): 1 (25-49% inhibition) | Plant Response Index (I) (Johnsongrass; [2]): 1 (25-49% inhibition) | Plant Response Index (I) (Johnsongrass; [3]): 1 (25-49% inhibition) | Plant Response Index (I) (Johnsongrass; [4]): 1 (25-49% inhibition) | Plant Response Index (E) (Common Lambsquarters; [1]): 0 (0-24% inhibition) | Plant Response Index (E) (Common Lambsquarters; [2]): 0 (0-24% inhibition) | Plant Response Index (E) (Common Lambsquarters; [3]): 1 (25-49% inhibition) | Plant Response Index (E) (Common Lambsquarters; [4]): 2 (50-74% inhibition) | Plant Response Index (K) (Barnyardgrass; [1]): 1 (25-49% inhibition) | Plant Response Index (K) (Barnyardgrass; [2]): 1 (25-49% inhibition) | Plant Response Index (K) (Barnyardgrass; [3]): 1 (25-49% inhibition) | Plant Response Index (K) (Barnyardgrass; [4]): 2 (50-74% inhibition) | Plant Response Index (B) (Cocklebur; [1]): 1 (25-49% inhibition) | Plant Response Index (B) (Cocklebur; [2]): 2 (50-74% inhibition) | Plant Response Index (B) (Cocklebur; [3]): 2 (50-74% inhibition) | Plant Response Index (B) (Cocklebur; [4]): 2 (50-74% inhibition) | Plant Response Index (A) (Canada Thistle; [1]): 1 (25-49% inhibition) | Plant Response Index (A) (Canada Thistle; [2]): 1 (25-49% inhibition) | Plant Response Index (A) (Canada Thistle; [3]): 2 (50-74% inhibition) | Plant Response Index (A) (Canada Thistle; [4]): 1 (25-49% inhibition) | Plant Response Index (C) (Velvetleaf; [1]): 1 (25-49% inhibition) | Plant Response Index (C) (Velvetleaf; [2]): 2 (50-74% inhibition) | Plant Response Index (C) (Velvetleaf; [3]): 1 (25-49% inhibition) | Plant Response Index (C) (Velvetleaf; [4]): 2 (50-74% inhibition) | Plant Response Index (G) (Yellow Nutsedge; [1]): 1 (25-49% inhibition) | Plant Response Index (G) (Yellow Nutsedge; [2]): 1 (25-49% inhibition) | Plant Response Index (G) (Yellow Nutsedge; [3]): 2 (50-74% inhibition) | Plant Response Index (G) (Yellow Nutsedge; [4]): 2 (50-74% inhibition)

Glycine, N-((Bis[((1,1-Dimethylethyl)Diphenylsilyl)oxy]-Phosphinyl)-Methyl)-, [(1,1-Dimethylethyl)Diphenylsilyl]Ester, (75%); Silanol, (1,1-Dimethylethyl)Diphenyl-, (25%-Mixture) [Ex. 4]
Plant Response Index (H) (Quackgrass; [5]): 0 (0-24% inhibition) | Plant Response Index (H) (Quackgrass; [6]): 1 (25-49% inhibition) | Plant Response Index (H) (Quackgrass; [7]): 0 (0-24% inhibition) | Plant Response Index (H) (Quackgrass; [8]): 2 (50-74% inhibition) | Plant Response Index (J) (Downy Brome; [5]): 0 (0-24% inhibition) | Plant Response Index (J) (Downy Brome; [6]): 0 (0-24% inhibition) | Plant Response Index (J) (Downy Brome; [7]): 0 (0-24% inhibition) | Plant Response Index (J) (Downy Brome; [8]): 0 (0-24% inhibition) | Plant Response Index (F) (Pennsylvania Smartweed; [5]): 1 (25-49% inhibition) | Plant Response Index (F) (Pennsylvania Smartweed; [6]): 2 (50-74% inhibition) | Plant Response Index (F) (Pennsylvania Smartweed; [7]): 0 (0-24% inhibition) | Plant Response Index (F) (Pennsylvania Smartweed; [8]): 2 (50-74% inhibition) | Plant Response Index (D) (Morningglory; [5]): 1 (25-49% inhibition) | Plant Response Index (D) (Morningglory; [6]): 2 (50-74% inhibition) | Plant Response Index (D) (Morningglory; [7]): 1 (25-49% inhibition) | Plant Response Index (D) (Morningglory; [8]): 2 (50-74% inhibition) | Plant Response Index (I) (Johnsongrass; [5]): 0 (0-24% inhibition) | Plant Response Index (I) (Johnsongrass; [6]): 0 (0-24% inhibition) | Plant Response Index (I) (Johnsongrass; [7]): 0 (0-24% inhibition) | Plant Response Index (I) (Johnsongrass; [8]): 1 (25-49% inhibition) | Plant Response Index (E) (Common Lambsquarters; [5]): 0 (0-24% inhibition) | Plant Response Index (E) (Common Lambsquarters; [6]): 2 (50-74% inhibition) | Plant Response Index (E) (Common Lambsquarters; [7]): 0 (0-24% inhibition) | Plant Response Index (E) (Common Lambsquarters; [8]): 3 (75-99% inhibition) | Plant Response Index (K) (Barnyardgrass; [5]): 1 (25-49% inhibition) | Plant Response Index (K) (Barnyardgrass; [6]): 1 (25-49% inhibition) | Plant Response Index (K) (Barnyardgrass; [7]): 1 (25-49% inhibition) | Plant Response Index (K) (Barnyardgrass; [8]): 1 (25-49% inhibition) | Plant Response Index (B) (Cocklebur; [5]): 1 (25-49% inhibition) | Plant Response Index (B) (Cocklebur; [6]): 2 (50-74% inhibition) | Plant Response Index (B) (Cocklebur; [7]): 1 (25-49% inhibition) | Plant Response Index (B) (Cocklebur; [8]): 2 (50-74% inhibition) | Plant Response Index (A) (Canada Thistle; [5]): 0 (0-24% inhibition) | Plant Response Index (A) (Canada Thistle; [6]): 2 (50-74% inhibition) | Plant Response Index (A) (Canada Thistle; [7]): 0 (0-24% inhibition) | Plant Response Index (A) (Canada Thistle; [8]): 2 (50-74% inhibition) | Plant Response Index (C) (Velvetleaf; [5]): 0 (0-24% inhibition) | Plant Response Index (C) (Velvetleaf; [6]): 1 (25-49% inhibition) | Plant Response Index (C) (Velvetleaf; [7]): 0 (0-24% inhibition) | Plant Response Index (C) (Velvetleaf; [8]): 1 (25-49% inhibition) | Plant Response Index (G) (Yellow Nutsedge; [5]): 0 (0-24% inhibition) | Plant Response Index (G) (Yellow Nutsedge; [6]): 0 (0-24% inhibition) | Plant Response Index (G) (Yellow Nutsedge; [7]): 1 (25-49% inhibition) | Plant Response Index (G) (Yellow Nutsedge; [8]): 2 (50-74% inhibition)
